From US5484717A, “Antibiotic 31F508α1, 31F508α2, 31F508β1, 31F508β2” (American Cyanamid Company, priority 1995, dated 1996)
≈ marks a conversion by molar mass, not a printed value.

Tests used:
[1] = system: Escherichia coli#311; experiment: In vivo antibacterial activity in intraperitoneally infected mice; set-up: species or system female CD-1 mice; settings: one half hour after infection
Description: The in vivo antibacterial activity of antibiotic 31F508α2 is established by infecting female CD-1 mice from Charles River Laboratories,weighing 20+-- 2 g each, intraperitoneally of sufficient bacterial cells suspended in either broth or 5% hog gastric mucin to kill non-treated controls within 24-48 hours. Two-fold serially diluted doses of the antibacterial agent contained in phosphate buffered saline (PBS, pH 7.4, 0.01M) are administered intravenously (0.2 ml) or contained in 0.2% aqueous agar, subcutaneously (0.5 ml) or orally (0.5 ml) one half hour after infection. In each test, five mice are treated per dose level.

[2] = system: CNS (ID-3120); experiment: In vitro antibacterial activity, agar dilution MIC; format: cell-based; settings: 18 h, read-out: Minimum Inhibitory Concentration, CNS (ID-3120), without sheep blood
Description: (§1) The in vitro antibacterial activity of 31F508α1 and α2 is determined against a spectrum of gram-positive and gram-negative bacteria by a standard agar dilution method. Mueller-Hinton agar with and without 5% sheep blood and two-fold decreasing concentrations of either 31F508α1 or α2 are poured into petri dishes. The agar surfaces are inoculated with 1 to 5×10^4 colony forming units of bacteria by means of the Steers replicating device. The lowest concentration of antibiotic that inhibits growth of a bacterial strain after 18 hours incubation is recorded as the minimal inhibitory concentration for that strain. The results are given in Table V with sheeps blood added to the agar.

[3] = system: Staphylococcus aureus (ID-2727); experiment: In vitro antibacterial activity, agar dilution MIC; format: cell-based; settings: 18 h, without sheep blood, read-out: Minimum Inhibitory Concentration
Description: as §1

[4] = system: S. lutea (ATCC 9341); experiment: In vitro antibacterial activity, agar dilution MIC; format: cell-based; settings: Micrococcus luteus, ATCC9341, without sheep blood, 18 hours, read-out: Minimum Inhibitory Concentration
Description: as §1

[5] = system: E. coli (J2175); experiment: In vitro antibacterial activity, agar dilution MIC; format: cell-based; settings: Escherichia coli, 18 h, without sheep blood, read-out: Minimum Inhibitory Concentration
Description: as §1

[6] = system: Staphylococcus haemolyticus (ID-4061); experiment: In vitro antibacterial activity, agar dilution MIC; format: cell-based; settings: 18 h, without sheep blood, read-out: Minimum Inhibitory Concentration
Description: as §1

[7] = system: S. agalactiae (ID-4079); experiment: In vitro antibacterial activity, agar dilution MIC; format: cell-based; settings: Streptococcus agalactiae, 18 h, read-out: Minimum Inhibitory Concentration, S. acralactiae (ID-4079), without sheep blood
Description: as §1

[8] = system: Staphylococcus aureus (ID-2371); experiment: In vitro antibacterial activity, agar dilution MIC; format: cell-based; settings: 18 h, without sheep blood, read-out: Minimum Inhibitory Concentration
Description: as §1

[9] = system: Staphylococcus aureus (ID-3105); experiment: In vitro antibacterial activity, agar dilution MIC; format: cell-based; settings: 18 h, without sheep blood, read-out: Minimum Inhibitory Concentration
Description: as §1

[10] = system: E. faecalis (ATCC 29212); experiment: In vitro antibacterial activity, agar dilution MIC; format: cell-based; settings: Enterococcus faecalis, ATCC29212, 18 h, without sheep blood, read-out: Minimum Inhibitory Concentration
Description: as §1

[11] = system: E. faecium (12202); experiment: In vitro antibacterial activity, agar dilution MIC; format: cell-based; settings: Enterococcus faecium, 18 h, without sheep blood, read-out: Minimum Inhibitory Concentration
Description: as §1

[12] = system: E. faecium (ID-3301); experiment: In vitro antibacterial activity, agar dilution MIC; format: cell-based; settings: Enterococcus faecium, 18 h, without sheep blood, read-out: Minimum Inhibitory Concentration
Description: as §1

[13] = system: Staphylococcus aureus (ATCC 29213); experiment: In vitro antibacterial activity, agar dilution MIC; format: cell-based; settings: ATCC29213, 18 h, Staphylococcus aureus (ATCC 29213-), without sheep blood, read-out: Minimum Inhibitory Concentration
Description: as §1

[14] = system: E. faecalis (ID-4168); experiment: In vitro antibacterial activity, agar dilution MIC; format: cell-based; settings: Enterococcus faecalis, 18 h, without sheep blood, read-out: Minimum Inhibitory Concentration
Description: as §1

[15] = system: Staphylococcus aureus (MEMC-89-4); experiment: In vitro antibacterial activity, agar dilution MIC; format: cell-based; settings: 18 h, without sheep blood, read-out: Minimum Inhibitory Concentration
Description: as §1

[16] = system: E. coli (J2445); experiment: In vitro antibacterial activity, agar dilution MIC; format: cell-based; settings: Escherichia coli, 18 h, without sheep blood, read-out: Minimum Inhibitory Concentration
Description: as §1

[17] = system: M. morganii (VGH 84-11); experiment: In vitro antibacterial activity, agar dilution MIC; format: cell-based; settings: Morganella morganii, 18 h, without sheep blood, read-out: Minimum Inhibitory Concentration
Description: as §1

[18] = system: E. faecalis (12201); experiment: In vitro antibacterial activity, agar dilution MIC; format: cell-based; settings: Enterococcus faecalis, 18 h, without sheep blood, read-out: Minimum Inhibitory Concentration
Description: as §1

[19] = system: E. faecium (ID-4133); experiment: In vitro antibacterial activity, agar dilution MIC; format: cell-based; settings: Enterococcus faecium, without sheep blood, 18 hours, read-out: Minimum Inhibitory Concentration
Description: as §1

[20] = system: E. coli (ATCC 25922); experiment: In vitro antibacterial activity, agar dilution MIC; format: cell-based; settings: Escherichia coli, ATCC25922, without sheep blood, 18 hours, read-out: Minimum Inhibitory Concentration
Description: as §1

[21] = system: Streptococcus pneumoniae (ID-4444); experiment: In vitro antibacterial activity, agar dilution MIC; format: cell-based; settings: 18 h, without sheep blood, read-out: Minimum Inhibitory Concentration
Description: as §1

[22] = system: B. cereus (Bacto); experiment: In vitro antibacterial activity, agar dilution MIC; format: cell-based; settings: Bacillus cereus, 18 h, without sheep blood, read-out: Minimum Inhibitory Concentration
Description: as §1

[23] = system: E. faecalis (ID-2131); experiment: In vitro antibacterial activity, agar dilution MIC; format: cell-based; settings: Enterococcus faecalis, 18 h, without sheep blood, read-out: Minimum Inhibitory Concentration
Description: as §1

[24] = system: CNS (ID-3941); experiment: In vitro antibacterial activity, agar dilution MIC; format: cell-based; settings: 18 h, read-out: Minimum Inhibitory Concentration, CNS (ID-3941), without sheep blood
Description: as §1

[25] = system: CNS (4615); experiment: In vitro antibacterial activity, agar dilution MIC; format: cell-based; settings: 18 h, read-out: Minimum Inhibitory Concentration, CNS (4615), without sheep blood
Description: as §1

[26] = system: P. aeruginosa (ATCC 27853); experiment: In vitro antibacterial activity, agar dilution MIC; format: cell-based; settings: Pseudomonas aeruginosa, ATCC27853, without sheep blood, 18 hours, read-out: Minimum Inhibitory Concentration
Description: as §1

[27] = system: Staphylococcus aureus (ID-4379); experiment: In vitro antibacterial activity, agar dilution MIC; format: cell-based; settings: 18 h, without sheep blood, read-out: Minimum Inhibitory Concentration
Description: as §1

[28] = system: S. Pyogenes (ID-3187); experiment: In vitro antibacterial activity, agar dilution MIC; format: cell-based; settings: Streptococcus pyogenes, 18 h, without sheep blood, read-out: Minimum Inhibitory Concentration
Description: as §1

[29] = system: E. faecalis (ID-1829); experiment: In vitro antibacterial activity, agar dilution MIC; format: cell-based; settings: Enterococcus faecalis, 18 h, without sheep blood, read-out: Minimum Inhibitory Concentration
Description: as §1

[30] = system: E. Avium (ID-3953); experiment: In vitro antibacterial activity, agar dilution MIC; format: cell-based; settings: Enterococcus avium, 18 h, without sheep blood, read-out: Minimum Inhibitory Concentration
Description: as §1

[31] = system: Staphylococcus aureus (SMITH); experiment: In vitro antibacterial activity, agar dilution MIC; format: cell-based; settings: 18 h, without sheep blood, read-out: Minimum Inhibitory Concentration
Description: as §1

[32] = Stability (conversion in neutral or basic solution; decomposition on drying); format: physicochemical; settings: listed as α2
Description: The crude product is then separated into the α1, α2, β1 and β2 components and further purified by high performance liquid chromatography on a reverse-phase column equilibrated with 0.1% trifluoroacetic acid in water followed by slution with an acetonitrile gradient to 10%. Active fractions are pooled and freeze dried. Freeze dried fractions are dissolved in 0.01M hydrochloric acid, applied to a reverse phase column and eluted with an acetonitrile gradient to 10% resolves the two components α1 and α2. […] Beta is the quinone form of α1 or α2 having lost hydrogens from the oxygens connected to carbon10 and 13.
The freeze dried material is suspended in methanol and the insolubles removed by filtration. The soluble material is concentrated to dryness and the concentrate dissolved in 1% trifluoroacetic acid in water. Insolubles are removed by centrifugation. The soluble material is loaded onto a preparative reverse phase C18 column equilibrated with 0.1% trifluoroacetic acid in water. The column is eluted with an acetonitrile gradient to 10%. Active fractions containing the alpha component are pooled and freeze dried. Active fractions containing the beta component are adjusted to pH 8 with solid ammonium bicarbonate and extracted with methylene chloride. The beta component is stored in methylene chloride as drying leads to rapid decomposition. […]

For `COc1c(C)c(O)c2c(c1O)C1COC3C4CC5C(C(C2N2CCOC52)N13)N4C` (stereo not drawn) [31F508α2], which “Survival Ratios” value ([1]; SIV (intravenous), 0.25 Mg/Kg) is on record?
The value was 0/5.

What about the “Survival Ratios” value ([1]; SIV (intravenous), 0.5 Mg/Kg) of the same compound?
The value was 0/5.

What about the “Survival Ratios” value ([1]; SIV (intravenous), 1 Mg/Kg) of the same compound?
Its value is 0/5.

What about the “Survival Ratios” value ([1]; SIV (intravenous), 2 Mg/Kg) of the same compound?
The value was 0/5.

And the “Survival Ratios” value ([1]; SIV (intravenous), 4 Mg/Kg)?
Its value is 0/5.

What about the “Survival Ratios” value ([1]; SOD (oral), 0.25 Mg/Kg) of the same compound?
The value was 0/5.

What about the “Survival Ratios” value ([1]; SOD (oral), 0.5 Mg/Kg) of the same compound?
The value was 0/5.

What about the “Survival Ratios” value ([1]; SOD (oral), 1 Mg/Kg) of the same compound?
The value was 0/5.

What about the “Survival Ratios” value ([1]; SOD (oral), 2 Mg/Kg) of the same compound?
Its value is 0/5.

What about the “Survival Ratios” value ([1]; SOD (oral), 4 Mg/Kg) of the same compound?
The value was 0/5.

And the “Survival Ratios” value ([1]; SOD (oral), 8 Mg/Kg)?
Its value is 0/5.

And the “Survival Ratios” value ([1]; SSC (subcutaneous), 0.25 Mg/Kg)?
The value was 0/5.

And the “Survival Ratios” value ([1]; SSC (subcutaneous), 0.5 Mg/Kg)?
Its value is 0/5.

What about the “Survival Ratios” value ([1]; SSC (subcutaneous), 1 Mg/Kg) of the same compound?
Its value is 0/5.

What about the “Survival Ratios” value ([1]; SSC (subcutaneous), 2 Mg/Kg) of the same compound?
The value was 0/5.

What about the “Survival Ratios” value ([1]; SSC (subcutaneous), 4 Mg/Kg) of the same compound?
The value was 0/5.

What about the “Survival Ratios” value ([1]; SSC (subcutaneous), 8 Mg/Kg) of the same compound?
The value was 0/5.

What about the MIC [2] of the same compound?
The MIC was 2 ng/mL (≈ 4.98 nM).

And the MIC [3]?
Its MIC is 2 ng/mL (≈ 4.98 nM).

What about the MIC [4] of the same compound?
The MIC was 2 ng/mL (≈ 4.98 nM).

And the MIC [5]?
Its MIC is 1000 ng/mL (≈ 2490 nM).

And the MIC [6]?
The MIC was 2 ng/mL (≈ 4.98 nM).

What about the MIC [7] of the same compound?
Its MIC is 4 ng/mL (≈ 9.96 nM).

What about the MIC [8] of the same compound?
Its MIC is 4 ng/mL (≈ 9.96 nM).

What about the MIC [9] of the same compound?
Its MIC is 4 ng/mL (≈ 9.96 nM).

And the MIC [10]?
Its MIC is 60 ng/mL (≈ 149 nM).

And the MIC [11]?
Its MIC is 15 ng/mL (≈ 37.4 nM).

What about the MIC [12] of the same compound?
Its MIC is 120 ng/mL (≈ 299 nM).

And the MIC [13]?
The MIC was 8 ng/mL (≈ 19.9 nM).

What about the MIC [14] of the same compound?
Its MIC is 120 ng/mL (≈ 299 nM).

And the MIC [15]?
Its MIC is 4 ng/mL (≈ 9.96 nM).

And the MIC [16]?
The MIC was 4 ng/mL (≈ 9.96 nM).

And the MIC [17]?
Its MIC is 500 ng/mL (≈ 1250 nM).

And the MIC [18]?
The MIC was 15 ng/mL (≈ 37.4 nM).

And the MIC [19]?
Its MIC is 2 ng/mL (≈ 4.98 nM).

And the MIC [20]?
The MIC was 500 ng/mL (≈ 1250 nM).

And the MIC [21]?
Its MIC is 2 ng/mL (≈ 4.98 nM).

And the MIC [22]?
Its MIC is 250 ng/mL (≈ 623 nM).

What about the MIC [23] of the same compound?
The MIC was 250 ng/mL (≈ 623 nM).

What about the MIC [24] of the same compound?
The MIC was 2 ng/mL (≈ 4.98 nM).

And the MIC [25]?
The MIC was 2 ng/mL (≈ 4.98 nM).

And the MIC [26]?
The MIC was 2000 ng/mL (≈ 4980 nM).

What about the MIC [27] of the same compound?
The MIC was 4 ng/mL (≈ 9.96 nM).

And the MIC [28]?
Its MIC is 2 ng/mL (≈ 4.98 nM).

And the MIC [29]?
Its MIC is 60 ng/mL (≈ 149 nM).

What about the MIC [30] of the same compound?
Its MIC is 30 ng/mL (≈ 74.7 nM).

What about the MIC [31] of the same compound?
The MIC was 2 ng/mL (≈ 4.98 nM).

And the “Conversion to the beta (quinone) form” value [32]?
Its value is “converts to the beta form”.
